# Source: patent US20220226321A1, “INHIBITOR OF MNK FOR THE TREATMENT OF NEUROPATHIC PAIN” (Board of Regents, The University of Texas System, priority 2019, published 2022)
# What was measured:
# DRG neurons = details: prior work; cited from earlier work
# mice [1] = details: Moy et al. (2017); cited from earlier work
# eIF4E = experiment: immunohistochemistry of p-eIF4E and eIF4E in L5 DRGs; format: in vivo, mouse; details: WT mice, day 2, 3 hr post 2nd injection
# Description: For tissues, animals were anesthetized with isoflurane and killed by decapitation, and tissues were frozen in O.C.T. on dry ice. Spinal cords were pressure ejected using chilled 1×PBS. Sections of L4-L5 DRGs ([…]) were mounted onto SuperFrost Plus slides (Thermo Fisher Scientific) and fixed in ice-cold 10% formalin in 1×PBS for 1 h then subsequently washed 3×10 each in 1×PBS and processed for immunohistochemistry (IHC). Slides were permeabilized in 50% ethanol for 30 min. After 30 min, slides were washed 3×10 each in 1×PBS. Tissues were blocked for at least 2 h in 1×PBS and 10% NGS. Primary antibodies against NeuN, peripherin, p-eIF4E^S209 and eIF4E were applied and incubated with DRG sections on slides at 4° C. overnight. Immunoreactivity was visualized after 1 h incubation with Alexa Fluor secondary antibodies at room temperature. Images were taken using an Olympus FluoView 1200 confocal microscope. Images are presented as projections of Z stacks, and they are representative of samples taken from 3 animals.
# mice [2] = experiment: thermal latency (Hargreaves) after type I IFN or poly (I:C); format: in vivo, mouse; details: 1 mg/kg i.p. for 2 consecutive days, 3-24 h after second administration
# Description: (§1) Behavior. Mice were housed on 12-hour light/dark cycles with food and water available ad libitum. Mice were randomized to groups from multiple cages to avoid using mice from experimental groups that were cohabitating. Sample size was estimated by performing a power calculation using G*Power (version 3.1.9.2). With 80% power and an expectation of d=2.2 effect size in behavioral experiments, and a set to 0.05, the sample size required was calculated as n=6 per group. The inventors therefore sought to have at least n=6 sample in all behavioral experiments. SD (set at 0.3) for the power calculation was based on previously published mechanical threshold data from the inventors' lab (Moy et al., 2017). Animals were habituated for 1 hour to clear acrylic behavioral chambers before beginning the experiment. For intraplantar injections, drugs were injected in a total volume of 25 μL through a 30-gauge needle. For intraperitoneal injections, drugs were administered in a volume of 100 μL Mechanical paw withdrawal thresholds in mice were measured using the up-down method (Chaplan et al., 1994) with calibrated von Frey filaments (Stoelting Company, WoodDale, Ill.). Thermal latency was measured using a Hargreaves device (IITC Life Science) (Hargreaves et al., 1988) with heated glass settings of 29° C., 40% active laser power, and 20 sec cutoff were used. The experimenter was blinded to the genotype of the mice and the drug condition in all experiments.
# mice [3] = experiment: mechanical paw withdrawal threshold (von Frey) after type I IFN or poly (I:C); format: in vivo, mouse; details: 1 mg/kg i.p. for 2 consecutive days, 3-24 h after second administration
# Description: as §1
# [4] = body temperature after intraperitoneal poly (I:C); format: in vivo, mouse; details: 1 mg/kg i.p.
# cultured DRG neurons = experiment: Western blot of cultured DRG neurons treated with IFN-α, IFN-β, ISRIB or poly (I:C); format: cell-based, mouse; details: direct application 10 μg/mL
# Description: Primary cell culture of mouse DRG neurons and Western blot. Cultured primary DRG neurons were used to test the effects of IFN-α [(300 units (U)/mL] and IFN-β [(300 units (U)/mL] application. For these experiments, mice were anesthetized with isoflurane and killed by decapitation. Then DRGs, from all spinal levels, were dissected and placed in chilled Hanks balanced-salt solution (HBSS, Invitrogen) until processed. Dorsal root ganglia were digested in 1 mg/mL collagenase A (Roche, Mannheim, Germany) for 25 minutes at 37° C. then subsequently digested in a 1:1 mixture of 1 mg/mL collagenase D and papain (Roche) for 20 minutes at 37° C. After this step, dorsal root ganglia were then triturated in a 1:1 mixture of 1 mg/mL trypsin inhibitor (Roche) and bovine serum albumin (BioPharm Laboratories, Bluffdale, Utah), then filtered through a 70 μm cell strainer (Corning, N.Y.). Cells were pelleted then resuspended in DMEM/F12 with GlutaMAX (Thermo Fisher Scientific, MA) containing 10% fetal bovine serum (FBS; Thermo Fisher Scientific), 5 ng/mL NGF, 1% penicillin and streptomycin, and […] to inhibit mitosis of non-neuronal cells and were distributed evenly in a 6-well plate coated with poly-D-lysine (Becton Dickinson, NJ). DRG neurons were maintained in a 37° C. incubator containing 5% CO2 with a media change every other day. On day 6, DRG neurons were treated with either vehicle, IFN-α or IFN-β for 1, 3, 6 and 24 h. Following treatments, cells were rinsed with chilled 1×PBS buffer, harvested in 200 μL of RIPA lysis buffer (50 mM Tris, pH 7.4, 150 mM NaCl, 1 mM EDTA, pH 8.0, and 1% Triton X-100) containing protease and phosphatase inhibitors (Sigma-Aldrich), and then sonicated for 5 seconds. To clear debris, samples were centrifuged at 14,000 rpm for 15 min at 4° C. Ten to 15 μg of protein was loaded into each well and separated by a 10% SDS-PAGE gel. Proteins were transferred to a 0.45 PVDF membrane (Millipore, MA) at 30 V overnight at 4° C. Subsequently, membranes were blocked with 5% non-fat dry milk in 1× Tris buffer solution containing Tween 20 (TTBS) for at least 2 h. Membranes were washed 3 times for 10 minutes each (3×10) in 1×TTBS, then incubated with primary antibodies overnight at 4° C. The following day, membranes were washed 3×10 each then incubated with the corresponding secondary antibodies at room temperature for 1 h. After incubation, membranes were washed with 1×TTBS 3×10 each. Signals were detected using Immobilon Western Chemiluminescent HRP Substrate (Millipore) and then visualized with Bio-Rad ChemiDoc Touch. Membranes were stripped using Restore Western Blot Stripping buffer (Thermo Fisher Scientific) and reprobed with another antibody. Analysis was performed using Image lab 6.0.1 software for Mac (Bio-Rad, Hercules, Calif.).
Molecule,IL-6 induced DRG nociceptor excitability (DRG neurons),cold hypersensitivity induced by peripheral nerve injury (mice [1]),phosphorylated eIF4E immunoreactivity in L5 DRGs (eIF4E),total eIF4E protein in L5 DRGs (eIF4E),thermal hypersensitivity (mice [2]),mechanical hypersensitivity (mice [3]),core body temperature [4],"p-ERK, p-eIF4E, p-PKR or p-eIF2α (cultured DRG neurons)"
CC(=O)C1=C(O)C=C2Oc3c(C(N)=O)c(O)cc(O)c3[C@]2(C)C1=O [cercosporamide],attenuated,reduced,–,–,–,–,–,–
poly (I:C),–,–,increased phosphorylated eIF4E immunoreactivity,without affecting total eIF4E protein,thermal hypersensitivity,developed mechanical hypersensitivity,increase in core body temperature,did not increase
